Among the data in patent US12264134B2 (Merck Sharp & Dohme LLC, priority 2018, dated 2025) are IC50 values, retold here.

Experiment [1] has as its target T1, IDO1 (Homo sapiens, UniProt P14902). The experiment in a line: IDO1 Cellular Assay in HeLa Cells Stimulated with IFNγ. Type of experiment: cell-based. Conditions: read-out: HeLa Cell Potency, IC50.
Experiment [2] addresses T1, IDO1. The experiment in a line: IDO1 Human Whole blood Assay. The class given is cell-based. On the set-up: Human whole blood was drawn in sodium heparin coated tubes from healthy internal donors; from tissue; host or cells: human whole blood from healthy donors, stimulated with LPS and IFNγ. Conditions: LPS and IFNγ stimulated, 18 h, read-out: Human Whole Blood Potency, IC50. Here is the method:
IDO1Human Whole blood Assay
Compounds to be tested were serially diluted in ten 3-fold steps in DMSO starting from 10 mM. 3 μL of compound dilutions or DMSO alone were then dispensed from the dilution plate into a polypropylene 96-well assay plate containing 97 μL of RPMI medium using an Echo 555 acoustic liquid handler (Labcyte). LPS and IFNγ was prepared in RPMI medium to a 10× of final conc. (1000 ng/mL), final concentration is 100 ng/mL.
Human whole blood was drawn in sodium heparin coated tubes from healthy internal donors. 240 μL of blood was transferred to each of the wells of a v-bottom 96 well plate. 30 μL of compound was transferred from intermediate dilution plate, and incubated for 15 min. 30 μL from stimulants was then transferred to blood and mixed thoroughly. Plate was covered with breathable membrane and incubated at 37° C. for overnight (18 h).
On day 2, isotope labeled standard solutions of kynurenine and tryptophan was made in water at 10× concentration and 30 μL was added to the blood at 3 μM final concentration. The assay plates were centrifuged at 300×G for 10 min with no brake to separate plasma from red blood cells. 60 μL of plasma samples was removed without disturbing red blood cells. Plasma was diluted with RPMI in 1:1 ratio and proteins were precipitated out with two volumes of Acetonitrile. The plates were centrifuged at 4000×G for 60 min. 20 μL of supernatant was carefully transferred to a 384 well plate containing 40 μL of 0.1% formic acid in water and analyzed by LC/MS/MS.
LC/MS/MS analyses were performed using Thermo Fisher's LX4-TSQ Quantum Ultra system. This system consists of four Agilent binary high-performance liquid chromatography (HPLC) pumps and a TSQ Quantum Ultra triple quadrupole MS/MS instrument. For each sample, 5 μL were injected onto an Atlantis T3 column (2.1 mm×150 mm, 3 μm particle size) from Waters. The mobile phase gradient pumped at 0.8 mL/min was used to elute the analytes from the column at 25° C. The elution started at 0% B increasing linearly to 25% B at 6.5 min, holding at 25% for 1 min, re-equilibrating to 10 min. Mobile phase A consisted of 0.1% formic acid in water. Mobile phase B consisted of 0.1% of formic acid in acetonitrile. Data were acquired in positive mode using a HESI interface. The operational parameters for the TSQ Quantum Ultra instrument were a spray voltage of 4000 V, capillary temperature of 380° C., vaporizer temperature 400° C., shealth gas 60 arbitrary units, Aux gas 20 arbitrary units, tube lens 85 and collision gas 1.2 mTorr. SRM chromatograms of kynurenine (Q1: 209.2>Q3:94.0) and internal standard (Q1: 215.3>Q3:98.2) were collected for 90 sec. The peak area was integrated by Xcalibur Quan software. The ratios between the kynurenine generated in the reaction and 2D6-Kynurenine spiked-in internal standard were used to generate percentage inhibition and IC50 values. Compounds were titrated and IC50's were calculated by 4 parameter sigmoidal curve fitting formula.

SMILES strings stand for the structures.

T1 sequence (P14902 whole entry): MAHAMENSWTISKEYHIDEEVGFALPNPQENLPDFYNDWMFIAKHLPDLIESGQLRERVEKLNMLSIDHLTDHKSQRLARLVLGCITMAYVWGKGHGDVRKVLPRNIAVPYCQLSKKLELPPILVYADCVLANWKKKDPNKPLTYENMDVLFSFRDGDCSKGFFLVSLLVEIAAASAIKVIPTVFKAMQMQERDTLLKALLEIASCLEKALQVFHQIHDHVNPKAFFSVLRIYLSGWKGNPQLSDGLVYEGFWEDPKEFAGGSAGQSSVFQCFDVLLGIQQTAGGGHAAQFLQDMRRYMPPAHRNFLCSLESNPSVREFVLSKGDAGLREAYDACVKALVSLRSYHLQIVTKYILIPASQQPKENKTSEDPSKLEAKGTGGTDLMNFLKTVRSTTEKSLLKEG

Turning to `Cc1cccc(N2CCN(C(=O)Cn3nc(C(=O)N4CC[C@H](O)[C@H](F)C4)c4c3CC(C(F)F)C4)CC2)c1C` (mixture of isomers) [Example 17, 2-[rac-5-(difluoromethyl)-3-[(3R,4S)-3-fluoro-4-hydroxy-piperidine-1-carbonyl]-5,6-dihydro-4H-cyclopenta[c]pyrazol-1-yl]-1-[4-(2,3-dimethylphenyl)piperazin-1-yl]ethanone], the IC50 on IDO1 [1] is 10.9 nM; at IDO1 [2] it was 625 nM.
On the same counts, the results for `Cc1cccc(N2CCN(C(=O)Cn3nc(C(=O)N4CCC(O)CC4)c4c3CC(C(F)F)C4)CC2)c1C` (racemic) [Example 16, 2-[rac-5-(difluoromethyl)-3-(4-hydroxypiperidine-1-carbonyl)-5,6-dihydro-4H-cyclopenta[c]pyrazol-1-yl]-1-[4-(2,3-dimethylphenyl)piperazin-1-yl]ethanone] are 2.21 nM and 143 nM.
For `Cc1cccc(N2CCN(C(=O)Cn3nc(C(=O)N4CCC(OCCO)CC4)c4c3C[C@H]3C[C@@H]43)[C@H]3CCC[C@@H]32)c1C` (racemic) [Example 326, 1-[rac-(4aS,7aS or 4aR,7aR)-1-(2,3-dimethylphenyl)-3,4a,5,6,7,7a-hexahydro-2H-cyclopenta[b]pyrazin-4-yl]-2-[(2R,4R)-9-[4-(2-hydroxyethoxy)piperidine-1-carbonyl]-7,8-diazatricyclo[4.3.0.02,4]nona-1(6),8-dien-7-yl]ethanone], the IC50 came out at 5.03 nM on IDO1 [1] and 813 nM on IDO1 [2].
`Cc1cccc(N2CCN(C(=O)Cn3nc(C(=O)N4CCCC4)c4c3CCC(F)C4)CC2)c1C` (single isomer, unassigned) [Example 7, 1-(4-(2,3-dimethylphenyl)piperazin-1-yl)-2-(5-fluoro-3-(pyrrolidine-1-carbonyl)-4,5,6,7-tetrahydro-1H-indazol-1-yl)ethanone]: the IC50 on IDO1 [1] was 11.1 nM; on IDO1 [2] it was 934 nM.
Regarding `Cc1cccc(N2CCN(C(=O)Cn3nc(C(=O)N4CCCC4)c4c3CCC(F)C4)CC2)c1C` (single isomer, unassigned) [Example 8, 1-(4-(2,3-dimethylphenyl)piperazin-1-yl)-2-(5-fluoro-3-(pyrrolidine-1-carbonyl)-4,5,6,7-tetrahydro-1H-indazol-1-yl)ethanone], the IC50 on IDO1 [1] was 11.3 nM; on IDO1 [2] it was 2440 nM.
Taken in the same sequence, the figures for `Cc1cccc(N2CCN(C(=O)Cn3nc(C(=O)N4CCC(O)CC4)c4c3C[C@H](C(F)F)C4)CC2)c1C` (single isomer, unassigned) [Example 9] were 4.26 nM and 126 nM.
For the molecule `Cc1cccc(N2CCN(C(=O)Cn3nc(C(=O)N4CCC(O)CC4)c4c3CC(C(F)F)C4)CC2)c1C` (single isomer, unassigned) [Example 10, 2-[5-(difluoromethyl)-3-(4-hydroxypiperidine-1-carbonyl)-5,6-dihydro-5H-cyclopenta[c]pyrazol-1-yl]-1-[4-(2,3-dimethylphenyl)piperazin-1-yl]ethanone], the IC50 at IDO1 [1] turned out to be 1.74 nM; at IDO1 [2], 233 nM.
With `Cc1cccc(N2CCN(C(=O)Cn3nc(C(=O)N4CC[C@H](O)[C@H](F)C4)c4c3CC(C(F)F)C4)CC2)c1C` (single isomer, unassigned) [Example 11], the results for the IC50 at IDO1 [1] and on IDO1 [2] were 7.6 nM and 980 nM, respectively.
As to `Cc1cccc(N2CCN(C(=O)Cn3nc(C(=O)N4CC[C@H](O)C(F)(F)C4)c4c3CCC4)CC2)c1C` (single isomer, unassigned) [Example 201, 2-[3-[(4S or 4R)-3,3-difluoro-4-hydroxy-piperidine-1-carbonyl]-5,6-dihydro-4H-cyclopenta[c]pyrazol-1-yl]-1-[4-(2,3-dimethylphenyl)piperazin-1-yl]ethanone], the IC50 is 3.67 nM on IDO1 [1] and 1800 nM at IDO1 [2].
On the same counts, the results for `Cc1cccc(N2CCN(C(=O)Cn3nc(C(=O)N4CC[C@@H](O)C(F)(F)C4)c4c3CCC4)CC2)c1C` (single isomer, unassigned) [Example 202, 2-[3-[(4R or 4S)-3,3-difluoro-4-hydroxy-piperidine-1-carbonyl]-5,6-dihydro-4H-cyclopenta[c]pyrazol-1-yl]-1-[4-(2,3-dimethylphenyl)piperazin-1-yl]ethanone] are 5.91 nM and 516 nM.
On the same counts, the results for `Cc1cccc(N2CCN(C(=O)Cn3nc(C(=O)N4CCC(O)C(F)C4)c4c3CCC4)C3(CC3)C2)c1C` (single isomer, unassigned) [Example 328, 1-[7-(2,3-dimethylphenyl)-4,7-diazaspiro[2.5]octan-4-yl]-2-[3-(3-fluoro-4-hydroxy-piperidine-1-carbonyl)-5,6-dihydro-4H-cyclopenta[c]pyrazol-1-yl]ethanone] are 6.86 nM and 4160 nM.
Taken in the same sequence, the figures for `Cc1cccc(N2CCN(C(=O)Cn3nc(C(=O)N4CCC(O)C(F)C4)c4c3CCC4)C3(CC3)C2)c1C` (single isomer, unassigned) [Example 329, 1-[7-(2,3-dimethylphenyl)-4,7-diazaspiro[2.5]octan-4-yl]-2-[3-(3-fluoro-4-hydroxy-piperidine-1-carbonyl)-5,6-dihydro-4H-cyclopenta[c]pyrazol-1-yl]ethanone] were 7.2 nM and 904 nM.
Regarding `Cc1cccc(N2CCN(C(=O)Cn3nc(C(=O)N4CCC(O)C(F)C4)c4c3CCC4)C3(CC3)C2)c1C` (single isomer, unassigned) [Example 330, 1-[7-(2,3-dimethylphenyl)-4,7-diazaspiro[2.5]octan-4-yl]-2-[3-(3-fluoro-4-hydroxy-piperidine-1-carbonyl)-5,6-dihydro-4H-cyclopenta[c]pyrazol-1-yl]ethanone], the IC50 at IDO1 [1] was 7.61 nM; at IDO1 [2] it was 971 nM.
In the case of `Cc1c(Cl)cccc1N1CCN(C(=O)Cn2nc(C(=O)N3CCC(OCCO)CC3)c3c2CCC(F)C3)CC1` (single isomer, unassigned) [Example 368, 1-(4-(3-chloro-2-methylphenyl)piperazin-1-yl)-2-(5-fluoro-3-(4-(2-hydroxyethoxy)piperidine-1-carbonyl)-4,5,6,7-tetrahydro-1H-indazol-1-yl)ethan-1-one], the IC50 is 2.8 nM at IDO1 [1] and 55 nM on IDO1 [2].
For the molecule `Cc1c(Cl)cccc1N1CCN(C(=O)Cn2nc(C(=O)N3CCC(OCCO)CC3)c3c2CCC(F)C3)CC1` (single isomer, unassigned) [Example 373, 1-(4-(3-chloro-2-methylphenyl)piperazin-1-yl)-2-(5-fluoro-3-(4-(2-hydroxyethoxy)piperidine-1-carbonyl)-4,5,6,7-tetrahydro-1H-indazol-1-yl)ethan-1-one], the IC50 came to 3.78 nM on IDO1 [1] and 202 nM at IDO1 [2].
As to `Cc1cccc(N2CCN(C(=O)Cn3nc(C(=O)N4CCC(O)C(F)C4)c4c3CCC4)C3(CC3)C2)c1C` (single isomer, unassigned) [Example 393, 1-(7-(2,3-dimethylphenyl)-4,7-diazaspiro[2.5]octan-4-yl)-2-(3-(3-fluoro-4-hydroxypiperidine-1-carbonyl)-5,6-dihydrocyclopenta[c]pyrazol-1(4H)-yl)ethanone], the IC50 on IDO1 [1] was 7.61 nM; at IDO1 [2], 971 nM.
In the case of `Cc1cccc(N2CCN(C(=O)Cn3nc(C(=O)N4CCC(O)C(F)C4)c4c3CCC4)C3(CC3)C2)c1C` (single isomer, unassigned) [Example 394, 1-(7-(2,3-dimethylphenyl)-4,7-diazaspiro[2.5]octan-4-yl)-2-(3-(3-fluoro-4-hydroxypiperidine-1-carbonyl)-5,6-dihydrocyclopenta[c]pyrazol-1(4H)-yl)ethanone], the IC50 on IDO1 [1] stood at 7.2 nM; at IDO1 [2], 904 nM.
